From patent publication US10351573B2, “Benzoic acid, benzoic acid derivatives and heteroaryl carboxylic acid conjugates of hydrocodone, prodrugs, methods of making and uses thereof” (KemPharm, Inc., priority 2009, dated 2019)
“Also recorded” adds a separate entry of the source. Ends that are not written are not given here.

Experiments:
[1] = Chemical stability: hydrolysis of conjugates in water for one hour; assay type: physicochemical
Protocol: Exemplary conjugates of hydrocodone of the present technology and control test conjugates not of the present technology were tested for chemical stability under conditions similar to what a potential drug abuser may use to “extract” the active portion of the molecule, for example dissolved in water, hydrochloric acid or sodium bicarbonate either at ambient temperature or 100° C.

[2] = Hydrolysis to hydrocodone in 1 N hydrochloric acid for 1 hour
[3] = Oral PK profiles in rats (plasma hydrocodone, hydromorphone, intact Bz-HC by LC/MS/MS); conditions: equivalent to 2 mg/kg hydrocodone freebase
[4] = Hydrolysis in 5% NaHCO3 for one hour; assay type: physicochemical
[5] = Water solubility / feasibility of intranasal or intravenous dosing
[6] = Intranasal PK profile in rats; conditions: equivalent to 2 mg/kg hydrocodone freebase
[7] = tested on: trypsin, pancreatin, pepsin and various esterases; assay: Enzymatic tampering studies; assay type: in vitro ADME
Source text: Without being bound by theory, it is believed that metabolism of Bz-HC after oral administration that allows for the rapid release of therapeutic amounts of hydrocodone requires the combinations and processes of the esterases and other enzymes functioning in the living enterocytes and liver tissue inside the body.

Oral PK profiles in dogs = conditions: equivalent to 2 mg/kg hydrocodone freebase
[8] = Example 22: intranasal crushed / oral intact tablets human PK study vs HB/APAP
[9] = Example 20: intact Bz-HC in plasma samples of Examples 13-18; assay type: in vivo; conditions: humans, oral, LLOQ
Protocol: Validated LC/MS/MS methods were used to measure plasma concentrations of Bz-HC, hydrocodone, hydromorphone and acetaminophen (APAP). The lower limits of quantitation (LLOQ) for Bz-HC, hydrocodone, hydromorphone, and APAP in plasma were 25 pg/mL, 250 pg/mL, 25 pg/mL, and 0.025 μg/mL, respectively for examples 14-18. For example 13, the lower limits of quantitation (LLOQ) for Bz-HC, hydrocodone, hydromorphone were 0.5 ng/mL.
LC/MS/MS analyses were performed in order to attempt to measure intact Bz-HC concentrations in the plasma samples obtained from any of the blood samples described above in Examples 13-18. However, all plasma concentrations of intact Bz-HC were <LLOQ (25 pg/mL) and no PK analyses could be performed

[10] = Tamper resistance: solvent hydrolysis studies; assay type: physicochemical
Protocol: In order to further evaluate the tamper-resistant properties of Bz-HC, a wide variety of Bz-HC solvent extraction studies were performed. […] The prodrug is not cleaved and no hydrocodone becomes available. […] We also conducted a wide variety of Bz-HC solvent hydrolysis studies in our own laboratories.

[11] = human, plasma, inhaled or intranasal, 13.34 mg

Compound: 2-aminobenzoate hydrocodone [Compound 2-ABz-HC]
- %-release (conjugate hydrolyzed) in water ([1]; 100° C.): 0%
- %-release (conjugate hydrolyzed) in water ([1]; ambient (about 20° C.)): 0%
- %-release in 1N HCl ([2]; 100° C.): 16%
- %-release in 1N HCl ([2]; ambient (~20° C.)): 0%
- AUC of hydrocodone, % lower than Hydrocodone.BT [3]: approximately 35%
- AUC of hydromorphone, % lower than Hydrocodone.BT [3]: approximately 25%
- Cmax of hydrocodone, % lower than Hydrocodone.BT [3]: ~60%
- Cmax of hydromorphone, % lower than Hydrocodone.BT [3]: ~50%

Compound: COc1ccc(C(=O)OC2=CC[C@H]3[C@H]4Cc5ccc(OC)c6c5[C@@]3(CCN4C)C2O6)cc1O (stereo partly shown) [3-OH-4-MeO-Bz-HC]
- %-release in 5% NaHCO3 ([4]; 5% NaHCO3, 100° C.): 36%
- %-release in 5% NaHCO3 ([4]; 5% NaHCO3, ambient (~20° C.)): 0%
- %-release in 1N HCl ([2]; 100° C.): 35%
- %-release in 1N HCl ([2]; ambient (~20° C.)): 0%
- water solubility (in words) [5]: poorly water soluble; also recorded: hydrophobic

Compound: COc1ccc2c3c1OC1C(OC(=O)CCCCC(=O)O)=CC[C@H]4[C@@H](C2)N(C)CC[C@]314 (stereo partly shown) [Adipate-HC, reference compound]
- %-release in 5% NaHCO3 ([4]; 5% NaHCO3, 100° C.): 100%
- %-release in 5% NaHCO3 ([4]; 5% NaHCO3, ambient (~20° C.)): 3%
- %-release in 1N HCl ([2]; 100° C.): 100%
- %-release in 1N HCl ([2]; ambient (~20° C.)): 13%
- AUC for hydromorphone (FIG. 8), % higher than Bz-HC [6]: approximately 750%
- AUC for hydromorphone (so in the source); FIG. 7, hydrocodone curves), % higher than Bz-HC [6]: approximately 280%
- Cmax for hydromorphone (FIG. 8), % higher than Bz-HC [6]: ~660%
- Cmax for hydromorphone (so in the source); FIG. 7, hydrocodone curves), % higher than Bz-HC [6]: ~60%
- water solubility (in words) [5]: water soluble

Compound: COc1ccc2c3c1OC1C(OC(=O)c4ccccc4)=CCC4C(C2)N(C)CCC314 (stereo not shown) [Bz-HC, benzoate-hydrocodone]
- release of hydrocodone from the prodrug by enzymes (in words) [7]: no significant release of hydrocodone
- AUC value for intact Bz-HC as % of the AUC value for hydrocodone (Oral PK profiles in dogs): approximately 10%
- half-life ([8]; human, plasma, inhaled or intranasal): 66.6 min
- AUC(0-inf) [8, 11]: 13.3 ± 8.86 ng·h/mL
- AUC(0-t) [8, 11]: 13.2 ± 8.86 ng·h/mL
- Tmax [8, 11]: 27 min
- Tlast of Bz-HC (time of the last quantifiable concentration), median ([8]; intranasal crushed Bz-HC.HCl/APAP 13.34/650 mg): 6.22 h
- solubility at physiological pH (in words) ([5]; human physiological pH of 7.4 (blood)): highly insoluble
- water solubility (in words) [5]: hydrophobic; also recorded: poor water solubility
- AUC for intact Bz-HC as % of the AUC value for hydrocodone [3]: approximately 10%
- AUC for intact Bz-HC as % of the AUC value for hydromorphone [3]: ~3%
- plasma concentrations of intact Bz-HC [9]: < 0.025 ng/mL
- %-release of Hydrocodone ([10]; Acetone, ambient temperature, 0.5 h): 0%
- %-release of Hydrocodone ([10]; Acetone, ambient temperature, 1 h): 0%
- %-release of Hydrocodone ([10]; Acetone, ambient temperature, 4 h): 0%
- %-release of Hydrocodone ([10]; Acetone, at boiling point, 0.5 h): 0%
- %-release of Hydrocodone ([10]; Acetone, at boiling point, 1 h): 0%
- %-release of Hydrocodone ([10]; Acetone, at boiling point, 4 h): 0%
- %-release of Hydrocodone ([10]; Ethanol, ambient temperature, 0.5 h): 0%
- %-release of Hydrocodone ([10]; Ethanol, ambient temperature, 1 h): 0%
- %-release of Hydrocodone ([10]; Ethanol, ambient temperature, 4 h): 0%
- %-release of Hydrocodone ([10]; Ethanol, at boiling point, 0.5 h): 0%
- %-release of Hydrocodone ([10]; Ethanol, at boiling point, 1 h): 0%
- %-release of Hydrocodone ([10]; Ethanol, at boiling point, 4 h): 0%
- %-release of Hydrocodone ([10]; Ethyl acetate, ambient temperature, 0.5 h): 0%
- %-release of Hydrocodone ([10]; Ethyl acetate, ambient temperature, 1 h): 0%
- %-release of Hydrocodone ([10]; Ethyl acetate, ambient temperature, 4 h): 0%
- %-release of Hydrocodone ([10]; Ethyl acetate, at boiling point, 0.5 h): 0%
- %-release of Hydrocodone ([10]; Ethyl acetate, at boiling point, 1 h): 0%
- %-release of Hydrocodone ([10]; Ethyl acetate, at boiling point, 4 h): 0%
- %-release of Hydrocodone ([10]; Methanol, ambient temperature, 0.5 h): 0%
- %-release of Hydrocodone ([10]; Methanol, ambient temperature, 1 h): 0%
- %-release of Hydrocodone ([10]; Methanol, ambient temperature, 4 h): 0%
- %-release of Hydrocodone ([10]; Methanol, at boiling point, 0.5 h): 0%
- %-release of Hydrocodone ([10]; Methanol, at boiling point, 1 h): 0%
- %-release of Hydrocodone ([10]; Methanol, at boiling point, 4 h): 0%
- %-release of Hydrocodone ([10]; Methyl ethyl ketone, ambient temperature, 0.5 h): 0%
- %-release of Hydrocodone ([10]; Methyl ethyl ketone, ambient temperature, 1 h): 0%
- %-release of Hydrocodone ([10]; Methyl ethyl ketone, ambient temperature, 4 h): 0%
- %-release of Hydrocodone ([10]; Methyl ethyl ketone, at boiling point, 0.5 h): 0%
- %-release of Hydrocodone ([10]; Methyl ethyl ketone, at boiling point, 1 h): 0%
- %-release of Hydrocodone ([10]; Methyl ethyl ketone, at boiling point, 4 h): 0%
- %-release of Hydrocodone ([10]; Octane, ambient temperature, 0.5 h): 0%
- %-release of Hydrocodone ([10]; Octane, ambient temperature, 1 h): 0%
- %-release of Hydrocodone ([10]; Octane, ambient temperature, 4 h): 0%
- %-release of Hydrocodone ([10]; Octane, at boiling point, 0.5 h): 0%
- %-release of Hydrocodone ([10]; Octane, at boiling point, 1 h): 0%
- %-release of Hydrocodone ([10]; Octane, at boiling point, 4 h): 0%
- %-release of Hydrocodone ([10]; Petrol ether, ambient temperature, 0.5 h): 0%
- %-release of Hydrocodone ([10]; Petrol ether, ambient temperature, 1 h): 0%
- %-release of Hydrocodone ([10]; Petrol ether, ambient temperature, 4 h): 0%
- %-release of Hydrocodone ([10]; Petrol ether, at boiling point, 0.5 h): 0%
- %-release of Hydrocodone ([10]; Petrol ether, at boiling point, 1 h): 0%
- %-release of Hydrocodone ([10]; Petrol ether, at boiling point, 4 h): 0%
- %-release of Hydrocodone ([10]; Tetrahydrofuran, ambient temperature, 0.5 h): 0%
- %-release of Hydrocodone ([10]; Tetrahydrofuran, ambient temperature, 1 h): 0%
- %-release of Hydrocodone ([10]; Tetrahydrofuran, ambient temperature, 4 h): 0%
- %-release of Hydrocodone ([10]; Tetrahydrofuran, at boiling point, 0.5 h): 0%
- %-release of Hydrocodone ([10]; Tetrahydrofuran, at boiling point, 1 h): 0%
- %-release of Hydrocodone ([10]; Tetrahydrofuran, at boiling point, 4 h): 0%
- %-release of Hydrocodone ([10]; Toluene, ambient temperature, 0.5 h): 0%
- %-release of Hydrocodone ([10]; Toluene, ambient temperature, 1 h): 0%
- %-release of Hydrocodone ([10]; Toluene, ambient temperature, 4 h): 0%
- %-release of Hydrocodone ([10]; Toluene, at boiling point, 0.5 h): 0%
- %-release of Hydrocodone ([10]; Toluene, at boiling point, 1 h): 0%
- %-release of Hydrocodone ([10]; Toluene, at boiling point, 4 h): 0%
- %-release of Hydrocodone ([10]; Water, ambient temperature, 0.5 h): 0%
- %-release of Hydrocodone ([10]; Water, ambient temperature, 1 h): 0%
- %-release of Hydrocodone ([10]; Water, ambient temperature, 4 h): 0%
- %-release of Hydrocodone ([10]; Water, at boiling point, 0.5 h): 0%
- %-release of Hydrocodone ([10]; Water, at boiling point, 1 h): 0%
- %-release of Hydrocodone ([10]; Water, at boiling point, 4 h): 0%
- %-release of Hydrocodone ([10]; Xylene, ambient temperature, 0.5 h): 0%
- %-release of Hydrocodone ([10]; Xylene, ambient temperature, 1 h): 0%
- %-release of Hydrocodone ([10]; Xylene, ambient temperature, 4 h): 0%
- %-release of Hydrocodone ([10]; Xylene, at boiling point, 0.5 h): 0%
- %-release of Hydrocodone ([10]; Xylene, at boiling point, 1 h): 0%
- %-release of Hydrocodone ([10]; Xylene, at boiling point, 4 h): 0%

Compound: COc1ccc2c3c1OC1C(OC(=O)c4cccc(O)c4)=CC[C@H]4[C@@H](C2)N(C)CC[C@]314 (stereo partly shown) [Compound 3-OH-Bz-HC]
- water solubility (in words) [5]: poorly water soluble; also recorded: hydrophobic

Compound: COc1ccc(C(=O)OC2=CC[C@H]3[C@H]4Cc5ccc(OC)c6c5[C@@]3(CCN4C)C2O6)cc1 (stereo partly shown) [Compound 4-MeO-Bz-HC]
- %-release (conjugate hydrolyzed) in water ([1]; 100° C.): 0%
- %-release (conjugate hydrolyzed) in water ([1]; ambient (about 20° C.)): 0%
- water solubility (in words) [5]: hydrophobic

Compound: COc1ccc2c3c1OC1C(OC(=O)c4ccc(O)cc4)=CC[C@H]4[C@@H](C2)N(C)CC[C@]314 (stereo partly shown) [Compound 4-OH-Bz-HC]
- %-release in 5% NaHCO3 ([4]; 5% NaHCO3, 100° C.): 23%
- %-release in 5% NaHCO3 ([4]; 5% NaHCO3, ambient (~20° C.)): 1%
- %-release (conjugate hydrolyzed) in water ([1]; 100° C.): 0%
- %-release (conjugate hydrolyzed) in water ([1]; ambient (about 20° C.)): 0%
- %-release in 1N HCl ([2]; 100° C.): 30%
- %-release in 1N HCl ([2]; ambient (~20° C.)): 0%
- water solubility (in words) [5]: hydrophobic

Compound: COc1ccc2c3c1OC1C(OC(=O)COCC(=O)O)=CC[C@H]4[C@@H](C2)N(C)CC[C@]314 (stereo partly shown) [Diglycolate-HC, reference compound]
- water solubility (in words) [5]: water soluble

Compound: COc1ccc2c3c1OC1C(OC(=O)c4cccnc4)=CCC4C(C2)N(C)CCC314 (stereo not shown) [Nicotinate-HC, nicotinate-hydrocodone]
- water solubility (in words) [5]: hydrophobic
- AUC values of hydrocodone and hydromorphone compared to Hydrocodone.BT (in words) [3]: within the range of bioequivalence

Compound: COc1ccc2c3c1OC1C(OC(=O)c4ccc5c(c4)OCO5)=CC[C@H]4[C@@H](C2)N(C)CC[C@]314 (stereo partly shown) [Piperonylate-HC]
- water solubility (in words) [5]: hydrophobic
- water solubility (in words) ([5]; listed as piperonylate-HC): poorly water soluble

Compound: Tyr-Tyr-Phe-Phe-Ile-Hydrocodone (YYFFI-Hydrocodone) [YYFFI-HC, reference compound]
- %-release in 5% NaHCO3 ([4]; 5% NaHCO3, 100° C.): 70%
- %-release in 5% NaHCO3 ([4]; 5% NaHCO3, ambient (~20° C.)): 0%
